# Reference: patent US20060182683A1, “Methods for reduced renal uptake of protein conjugates” (Center for Molecular Medicine and Immunology, priority 1995, published 2006)
# Columns and labels:
# mice = assay: Biodistribution of 99mTc-Fab′ NP-4 under poly-L-lysine of different molecular weight and lysine/poly-lysine mixtures; conditions: for Blood level of 99mTc-Fab′ NP-4 / Kidney uptake of 99mTc-Fab′ NP-4 / Kidney uptake, % control / Liver uptake of 99mTc-Fab′ NP-4 / Lungs uptake of 99mTc-Fab′ NP-4 / Spleen uptake of 99mTc-Fab′ NP-4: 4 h p.i.
# Description: Female BALB/c mice, 19 to 22 g of weight, 4 to 5 weeks of age (Charles River Laboratories, Boston, Mass.) were used as non-tumor-bearing animals. For a human tumor xenograft model, the human colon carcinoma cell line GW39 (Primus et al supra) was grown subcutaneously in 5- to 6-week-old female athymic mice (Harlan, Madison, Wis.). Animals were injected intravenously into the tail vein with approximately 5-10 μg of antibody fragment protein (i.e., 25-40 μCi of ^99mTc, ^188Re, and ^111In, resp.; 4 μCi of ^88Y, and 10 μCi of ^125I, respectively).
# The mice were sacrificed after 4 h and 24 h for ^99mTc-labeled antibodies, and after 4, 24, 72, 96 and 168 h for ^125I, ^111In, ^88Y and ^188Re-labeled antibodies. Mice were sacrificed by anesthesia with sodium pentobarbital and bled by cardiac puncture. After cervical dislocation, the animals were dissected. Radioactivity in the tumors and tissues (liver, spleen, kidney, lung, intestine, blood and bone) was determined by gamma scintillation counting using an injection standard to correct for physical decay.
# L-lysine, D-lysine and L-arginine monohydrochloride salts (Sigma, St. Louis, Mo.) were dissolved in phosphate-buffered saline (PBS) at a concentration of 160 mg/ml. L-lysine ethyl ester dihydrochloride was dissolved in PBS to yield a concentration of 80 mg/ml. Poly-L-lysine (1-4 kDa and 15-30 kDa) were used as hydrochloride salts at concentration of 25 mg/ml and 10 mg/ml, respectively.
# Animals were injected with the lysine and/or poly-lysine solutions intraperitoneally in amounts and at frequencies as shown below. Human patients were infused intravenously over a three-hour period with 1.5 liters of a commercially available amino acid solution starting 15 min before the antibody injection. The data of a total of 77 patients examined with ^99mTc-labeled anti-CEA Fab′ (NP-4: n=19; F023C5: n=58) were taken as controls (infused with the same volume of 0.9% saline instead of the amino acid solution).
# To attempt to reduce the necessity of frequent injections of the kidney uptake reducing agent, polymeric substances of higher molecular weight were investigated.
# To reach maximal effectiveness with as few injections as possible, combinations of lysine and poly-lysine were tested.
# [1] = tested on: GW39 colonic cancer xenograft bearing nude mice; assay: Biodistribution of anti-CEA 99mTc-Fab′ NP-4 under L-lysine / poly-L-lysine treatment; assay type: in vivo; conditions: poly-L-lys 0.15 mg/g i.v. at −30′
# Description: After cervical dislocation, the animals were dissected.
# [2] = 1-4 kD, 100 μg/g once 30′ before antibody
# [3] = 1-4 kD, 200 μg/g once 30′ before antibody
# [4] = 1-4 kD, 300 μg/g once 30′ before antibody
# [5] = poly-L-lysine administered twice (30′ before and 1 h after antibody), first treated column, dose and size not given
# [6] = poly-L-lysine administered twice (30′ before and 1 h after antibody), second treated column, dose and size not given
# [7] = 15-30 kD, 10 μg/g once 30′ before antibody
# [8] = 15-30 kD, 20 μg/g once 30′ before antibody
substance,measurement,setting,value
Poly-L-lysine [poly-L-lysine (1-4 kD)],Blood level of 99mTc-Fab′ NP-4,mice; [2],3.8 ± 0.1
same,Kidney uptake of 99mTc-Fab′ NP-4,mice; [2],95.5 ± 4.3
same,"Kidney uptake, % control",mice; [2],74.8 % control
same,Liver uptake of 99mTc-Fab′ NP-4,mice; [2],3.0 ± 0.2
same,Lungs uptake of 99mTc-Fab′ NP-4,mice; [2],5.9 ± 3.1
same,Spleen uptake of 99mTc-Fab′ NP-4,mice; [2],3.0 ± 0.4
same,Blood level of 99mTc-Fab′ NP-4,mice; [3],4.4 ± 0.5
same,Kidney uptake of 99mTc-Fab′ NP-4,mice; [3],80.5 ± 6.9
same,"Kidney uptake, % control",mice; [3],63.0 % control
same,Liver uptake of 99mTc-Fab′ NP-4,mice; [3],3.0 ± 0.4
same,Lungs uptake of 99mTc-Fab′ NP-4,mice; [3],3.9 ± 2.6
same,Spleen uptake of 99mTc-Fab′ NP-4,mice; [3],2.7 ± 0.4
same,Blood level of 99mTc-Fab′ NP-4,mice; [4],5.3 ± 1.4
same,Kidney uptake of 99mTc-Fab′ NP-4,mice; [4],67.9 ± 7.5
same,"Kidney uptake, % control",mice; [4],53.2 % control
same,Liver uptake of 99mTc-Fab′ NP-4,mice; [4],3.5 ± 0.8
same,Lungs uptake of 99mTc-Fab′ NP-4,mice; [4],5.6 ± 1.0
same,Spleen uptake of 99mTc-Fab′ NP-4,mice; [4],3.5 ± 0.4
same,kidney uptake reduction compared with the monomer,mice; single i.p. injection,significantly lower doses than the monomer
same,Blood level of 99mTc-Fab′ NP-4,[1]; 4 h p.i.,1.7 ± 0.2
same,GW39 uptake of 99mTc-Fab′ NP-4,[1]; 4 h p.i.,3.0 ± 1.0
same,Kidney uptake of 99mTc-Fab′ NP-4,[1]; 4 h p.i.,30.8 ± 6.0
same,"Kidney uptake, % of contr.",[1]; 4 h p.i.,52.2 % of contr.
same,Liver uptake of 99mTc-Fab′ NP-4,[1]; 4 h p.i.,1.5 ± 0.2
same,Lung uptake of 99mTc-Fab′ NP-4,[1]; 4 h p.i.,3.1 ± 1.2
same,Spleen uptake of 99mTc-Fab′ NP-4,[1]; 4 h p.i.,1.0 ± 0.1
same,Blood level of 99mTc-Fab′ NP-4,[1]; 24 h p.i.,0.3 ± 0.0
same,GW39 uptake of 99mTc-Fab′ NP-4,[1]; 24 h p.i.,2.2 ± 0.3
same,Kidney uptake of 99mTc-Fab′ NP-4,[1]; 24 h p.i.,25.3 ± 5.7
same,"Kidney uptake, % of contr.",[1]; 24 h p.i.,94.7 % of contr.
same,Liver uptake of 99mTc-Fab′ NP-4,[1]; 24 h p.i.,0.9 ± 0.1
same,Lung uptake of 99mTc-Fab′ NP-4,[1]; 24 h p.i.,0.8 ± 0.6
same,Spleen uptake of 99mTc-Fab′ NP-4,[1]; 24 h p.i.,0.7 ± 0.1
poly-L-lysine,Kidney uptake of 99mTc-Fab′ NP-4,mice; [5],43.7 ± 10.0
same,"Kidney uptake, % control",mice; [5],59.9 % control
same,Kidney uptake of 99mTc-Fab′ NP-4,mice; [6],41.6 ± 8.8
same,"Kidney uptake, % control",mice; [6],56.9 % control
Poly-L-lysine [poly-L-lysine (15-30 kD)],kidney uptake reduction,mice; 1×20 μg/g,50%
same,Blood level of 99mTc-Fab′ NP-4,mice; [7],4.7 ± 0.3
same,Kidney uptake of 99mTc-Fab′ NP-4,mice; [7],73.9 ± 7.2
same,"Kidney uptake, % control",mice; [7],57.8 % control
same,Liver uptake of 99mTc-Fab′ NP-4,mice; [7],7.3 ± 3.7
same,Lungs uptake of 99mTc-Fab′ NP-4,mice; [7],6.8 ± 4.3
same,Spleen uptake of 99mTc-Fab′ NP-4,mice; [7],3.7 ± 0.4
same,Blood level of 99mTc-Fab′ NP-4,mice; [8],4.7 ± 0.2
same,Kidney uptake of 99mTc-Fab′ NP-4,mice; [8],55.7 ± 6.5
same,"Kidney uptake, % control",mice; [8],43.6 % control
same,Liver uptake of 99mTc-Fab′ NP-4,mice; [8],4.6 ± 0.7
same,Lungs uptake of 99mTc-Fab′ NP-4,mice; [8],7.9 ± 3.2
same,Spleen uptake of 99mTc-Fab′ NP-4,mice; [8],3.8 ± 0.3
